In patent US9138439B2, “Methods and compositions for modulating P300/CBP activity” (The Wistar Institute, priority 2007, dated 2015):
Numbering of substitutions follows the chain as printed. Non-standard residues stand in square brackets, D forms with d. No end group written: not given here. Cit = NC(=O)NCCC[C@H](N)C(=O)O

Tests used:
p300/CBP HAT [1] = test: coupled spectrophotometric assay that measures CoASH production in real-time; assay type: biochemical, human; conditions: inhibitor concentration not given
Text: (§1) In accordance with the methods of the present invention, compounds were screened to identify modulators of p300/CBP HAT activity.

p300/CBP HAT [2] = test: direct radioactive assay measuring 14C-incorporation from acetyl-CoA into H4 tail peptide; assay type: biochemical, human; conditions: inhibitor concentration not given
Method: as §1
(§2) HAT Assays. HAT activity was determined by either a rapid and nonradioactive HAT assay that measures the production of CoASH by its facile reaction with DTNB, or by a radioactive assay (Lau, et al. (2000) supra; Thompson, et al. (2000) supra). […] For the radioactive assay, the concentration of [^14C]acetyl-CoA was fixed at 20 μM when measuring the steady-state kinetic parameters for peptide substrates.

p300/CBP = p300/CBP (Homo sapiens, UniProt Q09472); conditions: Lau, et al. (2000); cited from earlier work
D1625R/D1628R p300 HAT = target: T1, D1625R/D1628R p300 HAT (Homo sapiens, UniProt Q09472, D1625R/D1628R/DEL1523-1554/M1652G); test: HAT assay, steady state kinetic parameters of H4 tail peptide analog substrates, D1625R/D1628R p300 HAT mutant; assay type: biochemical; conditions: for V/K(M^−1s^−1) for D1625R/D1628R: peptide as substrate of D1625R/D1628R p300 HAT mutant; for V/K difference between wild-type p300 HAT protein and the D1625R/D1628R mutant: ratio wild-type versus mutant for the given substrate
T1 construct: linking the natural N- and C-termini (residues 1287 and 1666) of the HAT domain; made in house
T1 sequence (Q09472 with tags, fused parts or gaps DEL1523-1554/D1625R/D1628R/M1652G): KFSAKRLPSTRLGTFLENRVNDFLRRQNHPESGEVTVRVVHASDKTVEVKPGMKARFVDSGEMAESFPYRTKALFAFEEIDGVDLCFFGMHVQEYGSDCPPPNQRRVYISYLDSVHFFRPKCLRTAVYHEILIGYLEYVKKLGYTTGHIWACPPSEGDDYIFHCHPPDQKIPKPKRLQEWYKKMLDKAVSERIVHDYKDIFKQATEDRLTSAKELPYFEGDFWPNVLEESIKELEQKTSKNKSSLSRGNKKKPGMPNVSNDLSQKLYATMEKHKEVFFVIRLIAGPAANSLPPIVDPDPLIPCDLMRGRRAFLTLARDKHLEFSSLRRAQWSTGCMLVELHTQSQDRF
Method: as §2
(§3) To test the influence of electrostatic interactions on substrate sequence selection, the steady state kinetic parameters for several synthetic H4 tail peptide analogs was determined (listed in Table 5). In H4-15, there are two other basic residues (Lys5 and Lys12) near the target Lys8. It has previously been shown that either one of the nearby Lys (or Arg replacements) is sufficient to permit efficient acetylation by full-length p300 (Thompson, et al. (2001) supra). Here, the effects of replacing Lys5 and Lys12 with Ala, the neutral residue hydrogen bonding citrulline, or Asp were compared for wild-type and mutant p300 HAT as indicated in Table 5. Analysis of the single lysine substrate, analogous to the Lys-CoA component, which contains both amino and carboxyl groups derivatized as amides (Table 5), was also conducted. Km of these substrates were generally too high to be measured (>1000 μM) under the experimental conditions, highlighting the important role of the nearby positively charged residues for substrate interaction. As shown Table 5, the 22-fold V/K difference between wild-type p300 HAT protein and the D1625R/D1628R mutant for H4-15 substrate dropped to 6-fold when using Ac-Lys-NH2 as substrate. […] Consistent with this idea, H4-12^K5A/K12A or H4-12^K5Cit/K12A which lack proximal basic residues but contain neutral hydrogen bonding residues show kinetic behavior similar to that of Ac-Lys-NH2 (Table 5).

wild-type p300 HAT = target: T2, wild-type p300 HAT (Homo sapiens, UniProt Q09472, DEL1523-1554/M1652G); test: HAT assay, steady state kinetic parameters of H4 tail peptide analog substrates, wild-type p300 HAT; assay type: biochemical; conditions: peptide as substrate of wild-type p300 HAT
T2 construct: linking the natural N- and C-termini (residues 1287 and 1666) of the HAT domain; made in house
T2 sequence (Q09472 with tags, fused parts or gaps DEL1523-1554/M1652G): T1 sequence (Q09472 with tags, fused parts or gaps DEL1523-1554/D1625R/D1628R/M1652G) with R307D, R310D
Method: as §2, §3

AANAT = test: specificity test against other acetyltransferases: AANAT; assay type: biochemical
Text: (§4) The three small molecule p300 HAT inhibitors (7, 17.2 and 17.3) identified using virtual library screening provided new leads for further development. […] From the docking model of 7 to p300 HAT (FIG. 11), important hydrogen bonding roles are indicated for the side-chains of Arg1410, Thr1411, Trp1466 (all interacting with the inhibitor carboxylate) as well as the side-chain of Tyr1467 (hydrogen bonding to the nitro group). While Arg1410 and Tyr1467 are critical for CoA binding and/or catalysis, mutation of Trp1466 is well-tolerated. To explore the specificity of the small molecule HAT inhibitors, these compounds are tested against other acetyltransferases (PCAF, AANAT, RTT109, EsaI), which assists in the prioritization of candidates for pharmacologic applications.

PCAF = PCAF (Homo sapiens, UniProt Q92831); test: specificity test against other acetyltransferases: PCAF; assay type: biochemical
Text: as §4

PCAF, sequence (Q92831 whole entry, species assumed): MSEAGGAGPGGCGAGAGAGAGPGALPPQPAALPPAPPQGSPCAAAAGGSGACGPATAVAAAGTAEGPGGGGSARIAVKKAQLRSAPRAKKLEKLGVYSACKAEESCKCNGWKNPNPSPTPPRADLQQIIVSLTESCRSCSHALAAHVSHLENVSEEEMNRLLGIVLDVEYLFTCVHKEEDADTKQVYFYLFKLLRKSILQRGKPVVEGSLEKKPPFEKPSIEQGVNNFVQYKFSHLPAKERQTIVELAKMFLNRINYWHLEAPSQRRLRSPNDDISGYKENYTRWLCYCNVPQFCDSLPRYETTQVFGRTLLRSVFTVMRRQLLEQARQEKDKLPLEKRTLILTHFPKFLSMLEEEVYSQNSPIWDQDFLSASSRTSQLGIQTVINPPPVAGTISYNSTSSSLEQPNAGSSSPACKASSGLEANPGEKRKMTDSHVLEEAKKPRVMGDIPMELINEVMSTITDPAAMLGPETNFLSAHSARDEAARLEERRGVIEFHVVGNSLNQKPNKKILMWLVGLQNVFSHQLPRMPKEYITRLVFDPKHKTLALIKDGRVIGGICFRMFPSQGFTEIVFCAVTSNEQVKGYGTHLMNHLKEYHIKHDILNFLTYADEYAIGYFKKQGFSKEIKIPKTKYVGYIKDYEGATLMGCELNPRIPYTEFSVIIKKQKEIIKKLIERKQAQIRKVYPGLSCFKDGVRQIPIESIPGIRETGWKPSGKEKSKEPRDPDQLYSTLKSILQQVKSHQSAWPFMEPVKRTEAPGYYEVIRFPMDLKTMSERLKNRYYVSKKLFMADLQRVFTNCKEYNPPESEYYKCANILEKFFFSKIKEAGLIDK
p300/CBP, sequence (Q09472 whole entry): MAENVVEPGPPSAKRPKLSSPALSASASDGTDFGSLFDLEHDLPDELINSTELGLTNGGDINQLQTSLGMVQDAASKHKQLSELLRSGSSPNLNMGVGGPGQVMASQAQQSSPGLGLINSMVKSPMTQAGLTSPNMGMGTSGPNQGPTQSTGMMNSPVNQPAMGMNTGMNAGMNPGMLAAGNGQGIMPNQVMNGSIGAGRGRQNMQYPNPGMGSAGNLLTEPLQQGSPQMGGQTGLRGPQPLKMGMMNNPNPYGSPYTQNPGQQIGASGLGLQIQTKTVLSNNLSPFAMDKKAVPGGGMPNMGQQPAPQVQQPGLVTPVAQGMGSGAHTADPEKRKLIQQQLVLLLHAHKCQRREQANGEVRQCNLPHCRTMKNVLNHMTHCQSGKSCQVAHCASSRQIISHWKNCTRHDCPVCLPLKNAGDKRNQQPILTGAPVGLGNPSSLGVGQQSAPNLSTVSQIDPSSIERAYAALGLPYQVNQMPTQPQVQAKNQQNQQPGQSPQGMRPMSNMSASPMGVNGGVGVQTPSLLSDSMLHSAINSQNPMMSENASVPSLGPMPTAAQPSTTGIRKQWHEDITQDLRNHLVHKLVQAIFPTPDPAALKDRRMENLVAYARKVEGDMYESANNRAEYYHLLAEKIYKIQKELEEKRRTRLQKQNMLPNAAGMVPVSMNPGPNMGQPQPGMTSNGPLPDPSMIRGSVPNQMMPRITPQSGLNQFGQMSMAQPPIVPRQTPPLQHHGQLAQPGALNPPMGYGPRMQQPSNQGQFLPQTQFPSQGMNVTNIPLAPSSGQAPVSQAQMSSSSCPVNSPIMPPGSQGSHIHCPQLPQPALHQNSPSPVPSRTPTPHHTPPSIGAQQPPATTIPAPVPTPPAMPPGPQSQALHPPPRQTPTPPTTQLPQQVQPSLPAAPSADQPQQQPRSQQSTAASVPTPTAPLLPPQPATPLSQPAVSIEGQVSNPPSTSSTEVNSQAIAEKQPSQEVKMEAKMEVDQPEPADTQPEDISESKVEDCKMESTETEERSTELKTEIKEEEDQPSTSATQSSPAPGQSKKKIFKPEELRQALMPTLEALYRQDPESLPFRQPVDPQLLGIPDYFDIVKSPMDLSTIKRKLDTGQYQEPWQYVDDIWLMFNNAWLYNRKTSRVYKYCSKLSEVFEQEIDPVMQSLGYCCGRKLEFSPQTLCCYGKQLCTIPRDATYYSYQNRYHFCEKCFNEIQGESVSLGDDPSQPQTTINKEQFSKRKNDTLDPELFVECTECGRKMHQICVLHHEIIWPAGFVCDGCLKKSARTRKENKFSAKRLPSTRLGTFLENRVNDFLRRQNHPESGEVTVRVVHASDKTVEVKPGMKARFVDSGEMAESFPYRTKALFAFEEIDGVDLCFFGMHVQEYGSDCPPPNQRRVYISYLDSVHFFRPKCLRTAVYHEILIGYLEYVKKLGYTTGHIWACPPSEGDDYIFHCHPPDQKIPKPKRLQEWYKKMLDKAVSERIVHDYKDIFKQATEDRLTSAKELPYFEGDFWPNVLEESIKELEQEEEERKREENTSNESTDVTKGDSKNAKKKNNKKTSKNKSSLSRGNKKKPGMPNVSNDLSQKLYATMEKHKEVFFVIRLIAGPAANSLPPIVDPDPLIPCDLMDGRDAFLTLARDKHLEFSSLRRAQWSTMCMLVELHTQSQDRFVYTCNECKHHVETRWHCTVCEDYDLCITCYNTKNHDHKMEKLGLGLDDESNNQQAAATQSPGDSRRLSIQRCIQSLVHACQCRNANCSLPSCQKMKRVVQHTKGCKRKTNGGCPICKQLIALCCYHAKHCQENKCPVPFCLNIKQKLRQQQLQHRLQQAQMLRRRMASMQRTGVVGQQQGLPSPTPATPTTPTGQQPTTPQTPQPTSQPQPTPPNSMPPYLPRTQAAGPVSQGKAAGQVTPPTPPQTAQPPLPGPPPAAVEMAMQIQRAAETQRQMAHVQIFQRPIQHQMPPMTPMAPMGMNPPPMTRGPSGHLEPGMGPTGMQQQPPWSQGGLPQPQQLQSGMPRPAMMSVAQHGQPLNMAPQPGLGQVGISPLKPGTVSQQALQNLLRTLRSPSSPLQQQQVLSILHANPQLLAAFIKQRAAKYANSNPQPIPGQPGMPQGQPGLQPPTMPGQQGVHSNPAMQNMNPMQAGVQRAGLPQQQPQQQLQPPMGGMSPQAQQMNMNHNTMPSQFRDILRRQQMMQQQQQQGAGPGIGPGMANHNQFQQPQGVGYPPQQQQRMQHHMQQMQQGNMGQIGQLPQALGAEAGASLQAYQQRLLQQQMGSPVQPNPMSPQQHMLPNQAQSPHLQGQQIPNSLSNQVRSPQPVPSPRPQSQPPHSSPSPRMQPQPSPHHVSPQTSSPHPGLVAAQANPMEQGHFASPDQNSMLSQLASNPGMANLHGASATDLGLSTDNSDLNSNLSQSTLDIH

For `CC1=NN(c2ccc(C(=O)O)cc2)C(=O)C1` [CM-26], which “% Inhibition Coupled” value (p300/CBP HAT [1]) is on record?
Its value is 16.3%.

Which results are given for `CC1=NN(CCCCC(=O)O)C(=O)/C1=C\c1ccc(-c2cc(C)c(C)cc2[N+](=O)[O-])o1` [Compound 9]?
% Inhibition Coupled (p300/CBP HAT [1]): 92.6%; % Inhibition Direct (p300/CBP HAT [2]): 55.8%

With `CC(=O)N[C@@H](CCCCNC(=O)CSCCNC(=O)CCNC(=O)[C@H](O)C(C)(C)COP(=O)(O)OP(=O)(O)OC[C@H]1O[C@@H](n2cnc3c(N)ncnc32)[C@H](O)[C@@H]1OP(=O)(O)O)C(N)=O` [Lys-CoA] as the molecule, how does the “inhibition of p300/CBP” value (p300/CBP) read?
Its value is “powerful and selective inhibitor”.

With `CC1=NN(c2ccc(Cl)cc2)C(=O)/C1=C\c1ccc(-c2cc(C)c(C)cc2[N+](=O)[O-])o1` [Compound 6i] as the molecule, how does the “% Inhibition Coupled” value (p300/CBP HAT [1]) read?
The value was 13.9%.

What about the melting point of the same molecule?
The melting point was 220 to 223 °C.

For `CC1=NN(c2ccc(C(=O)O)cc2)C(=O)/C1=C\c1ccc(-c2ccccc2F)o1` [Compound 6328730], which “% Inhibition Coupled” value (p300/CBP HAT [1]) is on record?
The value was 90.5%.

What about the “% Inhibition Direct” value (p300/CBP HAT [2]) of the same molecule?
Its value is 67.9%.

For `CC1=NN(c2ccc(C(=O)O)cc2)C(=O)/C1=C\c1ccc(-c2ccccc2)o1` [Compound 6a], which “% Inhibition Coupled” value (p300/CBP HAT [1]) is on record?
Its value is 33.7%.

And the “% Inhibition Direct” value (p300/CBP HAT [2])?
The value was 71.5%.

What about the melting point of the same molecule?
Its melting point is 306 to 309 °C.

Which results are given for “RGXGGKGLGAGA (RG[Cit]GGKGLGAGA) [H4-12(K5X/K12A)]”?
V/K(M^−1s^−1) for D1625R/D1628R (D1625R/D1628R p300 HAT): 738 ± 20 M⁻¹ s⁻¹; V/K(M^−1s^−1) for W.T. (wild-type p300 HAT): 5247 ± 60 M⁻¹ s⁻¹

Which “% Inhibition Coupled” value (p300/CBP HAT [1]) does the source give for `CC1=NN(c2ccc(S(=O)(=O)O)cc2)C(=O)/C1=C\c1ccc(-c2cc(C)c(C)cc2[N+](=O)[O-])o1` [Compound 6f] here?
Its value is 57.4%.

What about the “% Inhibition Direct” value (p300/CBP HAT [2]) of the same molecule?
The value was 97.2%.

What about the melting point of the same molecule?
The melting point was 210 to 213 °C.

With `CC1=NN(c2ccc(C(=O)O)cc2)C(=O)/C1=C\c1ccc(-c2cc(C)ccc2[N+](=O)[O-])o1` [Compound 40174] as the molecule, how does the “% Inhibition Direct” value (p300/CBP HAT [2]) read?
The value was 79.5%.

For `CCOC(=O)c1ccccc1-c1ccc(/C=C2\C(=O)N(c3ccc(C(=O)O)cc3)N=C2C)o1` [Compound 6c], which “% Inhibition Coupled” value (p300/CBP HAT [1]) is on record?
Its value is 38.1%.

And the “% Inhibition Direct” value (p300/CBP HAT [2])?
Its value is 8.3%.

And the melting point?
Its melting point is 249 to 251 °C.

What does the source list for `CC1=NN(c2cccc(C(=O)O)c2)C(=O)/C1=C\c1ccc(-c2cc(C)c(C)cc2[N+](=O)[O-])o1` [Compound 6e]?
% Inhibition Coupled (p300/CBP HAT [1]): 63.4%; % Inhibition Direct (p300/CBP HAT [2]): 96.4%; melting point: 260 to 262 °C

For `CC1=NN(c2ccc(C(=O)O)cc2)C(=O)/C1=C\c1ccc(-c2ccc([N+](=O)[O-])cc2)o1` [Compound 6b], which “% Inhibition Coupled” value (p300/CBP HAT [1]) is on record?
Its value is 35.6%.

What about the “% Inhibition Direct” value (p300/CBP HAT [2]) of the same molecule?
Its value is 33.8%.

What about the melting point of the same molecule?
Its melting point is 338 to 341 °C.

Which results are given for `CC1=NN(c2ccc(C(N)=O)cc2)C(=O)/C1=C\c1ccc(-c2cc(C)c(C)cc2[N+](=O)[O-])o1` [Compound 6h]?
% Inhibition Coupled (p300/CBP HAT [1]): 40.6%; % Inhibition Direct (p300/CBP HAT [2]): 94.7%; melting point: 273 to 275 °C

For GRGDGGKGLGDGGAK [H4-15(K5D/K12D)], which “V/K(M^−1s^−1) for D1625R/D1628R” value (D1625R/D1628R p300 HAT) is on record?
Its value is 422 ± 20 M⁻¹ s⁻¹.

And the “V/K difference between wild-type p300 HAT protein and the D1625R/D1628R mutant” value (D1625R/D1628R p300 HAT)?
Its value is at most 2 fold.

What about the “V/K(M^−1s^−1) for W.T.” value (wild-type p300 HAT) of the same molecule?
The value was 636 ± 0 M⁻¹ s⁻¹.

Which “V/K(M^−1s^−1) for D1625R/D1628R” value (D1625R/D1628R p300 HAT) does the source give for `CC(=O)NC(CCCCN)C(N)=O` (stereo not drawn) [Ac-Lys-NH2, CH3CO—NH-Lys-CONH2] here?
Its value is 326 ± 10 M⁻¹ s⁻¹.

What about the “V/K difference between wild-type p300 HAT protein and the D1625R/D1628R mutant” value (D1625R/D1628R p300 HAT) of the same molecule?
Its value is 6 fold.

And the “V/K(M^−1s^−1) for W.T.” value (wild-type p300 HAT)?
The value was 1843 ± 50 M⁻¹ s⁻¹.

With RGAGGKGLGAGA [H4-12(K5A/K12A)] as the molecule, how does the “V/K(M^−1s^−1) for D1625R/D1628R” value (D1625R/D1628R p300 HAT) read?
Its value is 515 ± 15 M⁻¹ s⁻¹.

What about the “V/K(M^−1s^−1) for W.T.” value (wild-type p300 HAT) of the same molecule?
Its value is 3824 ± 180 M⁻¹ s⁻¹.

Which results are given for `CCOC(=O)c1ccc(N2N=C(C)/C(=C/c3ccc(-c4cc(C)c(C)cc4[N+](=O)[O-])o3)C2=O)cc1` [Compound 6d]?
% Inhibition Coupled (p300/CBP HAT [1]): 0%; melting point: 192 to 194 °C

What does the source list for “GRGKGGKGLGKGGAK (Ac-GRGKGGKGLGKGGAK) [Compound H4-15]”?
V/K(M^−1s^−1) for D1625R/D1628R (D1625R/D1628R p300 HAT): 1162 ± 60 M⁻¹ s⁻¹; V/K difference between wild-type p300 HAT protein and the D1625R/D1628R mutant (D1625R/D1628R p300 HAT): 22 fold; V/K(M^−1s^−1) for W.T. (wild-type p300 HAT): 25000 ± 1643 M⁻¹ s⁻¹

Which “% inhibition of AANAT” value (AANAT) does the source give for `CC1=NN(c2ccc(C(=O)O)cc2)C(=O)/C1=C\c1ccc(-c2cc(C)c(C)cc2[N+](=O)[O-])o1` [Compound 7] here?
Its value is 4.8%.

And the “% Inhibition Coupled” value (p300/CBP HAT [1])?
Its value is 85.9%.

And the “% inhibition of PCAF” value (PCAF)?
The value was 0%.
